In patent US12161632B2, “Compositions and methods of treating cardiac fibrosis with ifetroban” (Cumberland Pharmaceuticals Inc., priority 2014, dated 2024):
Counter-ions that a name gives are not always drawn.

How the values were obtained:
[1] = tested on: right ventricle gene expression; experiment: Right ventricle gene expression, Affymetrix Mouse Gene 2.0 arrays (Example IV); type: in vivo, mice; settings: sham surgery mice, 25 mg/kg/day, 2 weeks
Description: FVB/N mice or mice with a GFP macrophage-specific lineage tracing marker (LysM-Cre) underwent pulmonary banding to directly increase load stress (or sham surgery for controls), and starting the following day received either vehicle or the thromboxane receptor antagonist Ifetroban sodium in their drinking water (25 mg/kg/day). After 2 weeks, noninvasive hemodynamics were obtained by transthoracic echocardiography and invasive hemodynamics were obtained by pressure-volume catheterization of the right heart prior to sacrifice. Hearts were assessed for fibrosis and macrophage infiltration. RNA from right ventricles were isolated and used for unbiased discovery of altered gene expression using Affymetrix Mouse Gene 2.0 arrays performed on four groups (banded or sham). LysM-Cre mouse hearts were flash-frozen whole, cross-sectioned, and assessed by microscopy for fibrosis and macrophage infiltration. Differences between groups were assessed by ANOVA and t-tests. Correlations were assessed by Spearman correlation.

[2] = tested on: RV monocytes / macrophages; experiment: Cardiac monocytes: LysM-Cre lineage tracing and flow cytometry of RV (Example VII); type: in vivo, mice; settings: LysM-Cre reporter mice, aspirin
Description: Both male and female age-matched C57Bl/6 or FVB/NJ mice, obtained by in-house breeding, were used for pulmonary artery banding. LysM-GFP mice were obtained by cross-breeding LysM-Cre×mTomato/GFP reporter mice B6.129P2-Lyz2tm1(cre)Ifo/J (a gift from Tim Blackwell)×Gt(ROSA)26Sortm4(ACTB-tdTomato, -EGFP)Luo (JAX stock #007676). The day following surgery, mice were given either 25 mg/kg/day IFETROBAN (Cumberland Pharmaceuticals Inc., Nashville, TN) in drinking water or normal drinking water (vehicle) for 2 weeks or 6 weeks prior to hemodynamic evaluation. Mice were weighed and water was changed once a week.
TP receptors are also expressed on monocytes, and blockade of these receptors may have immune-specific effects. To determine whether the decrease in fibrosis seen with TP receptor inhibition was due to decreased macrophage infiltration or proliferation in the RV, PAB on LysM-Cre mice expressing eGFP under the LysozymeM promoter was performed, where all cells that have ever had monocyte lineage are labeled with GFP, even if they have later differentiated. […] Transgenic LysM-Cre×flox-mTomato-flox eGFP mice were used to label cells of monocyte derivation in the RV. These mice express a fluorescent red, except in cells derived from monocyte lineage (even if they have later differentiated), which express a fluorescent green. […] Flow sorting of whole RV for circulating markers found a non-significant trend towards an increase in PA-banded mice that was blocked by ifetroban.

[3] = tested on: pulmonary artery banding (PAB) model of right ventricular pressure overload; experiment: PAB model of right ventricular pressure overload: hemodynamics, echocardiography, histology (Example VII); type: in vivo; settings: PAB mice

| SMILES | the same expression changes in the sham surgery group [1] | number of RV monocytes / green (monocyte lineage) cells after PAB [2] | number of RV monocytes / green (monocyte lineage) cells after PAB ([2]; listed as ASA) | replication of the ifetroban results (fibrosis, hypertrophy, TSP-4, TGF-beta) ([3]; low-dose aspirin) | RV fibrosis (Masson's trichrome) ([3]; oral aspirin 10 mg/kg/day, 2 weeks) |
| --- | --- | --- | --- | --- | --- |
| CCCCCNC(=O)c1coc([C@H]2[C@@H](Cc3ccccc3CCC(=O)O)[C@@H]3CC[C@H]2O3)n1 [Ifetroban sodium, [1S-(1α,2α,3α,4α)]-2-[[3-[4-[(Pentylamino)carbonyl]-2-oxazolyl]-7-oxabicyclo[2.2.1]hept-2-yl]methyl]-benzenepropanoic acid, monosodium salt] | not found in the sham surgery group | – | – | – | – |
| CC(=O)Oc1ccccc1C(=O)O [aspirin] | – | appeared to increase the number of RV monocytes | significantly increases numbers of green cells | failed to replicate these results | failed to prevent fibrosis |
